Results taken from PubChem BioAssay (NCI).
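Values below derive from 48-hour exposures of cells grown in 96-well plates, with endpoints linearly interpolated between the two concentrations bracketing the appropriate inhibition level. Abbreviation: GI50, concentration required for 50% inhibition of growth. TGI denotes the concentration required for complete inhibition of growth.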

Legend:
Assay in all cases: DTP human tumour cell line panel, 48 h
NCI-H226 lung = test system: NCI-H226 lung
NCI-H23 lung = test system: NCI-H23 lung
NCI-H460 lung = test system: NCI-H460 lung
NCI-H522 lung = test system: NCI-H522 lung
NCI/ADR-RES ovarian = test system: NCI/ADR-RES ovarian
OVCAR-4 ovarian = test system: OVCAR-4 ovarian
OVCAR-5 ovarian = test system: OVCAR-5 ovarian
OVCAR-8 ovarian = test system: OVCAR-8 ovarian
PC-3 prostate = test system: PC-3 prostate
RPMI-8226 leukemia = test system: RPMI-8226 leukemia
RXF 393 renal = test system: RXF 393 renal
SF-268 CNS = test system: SF-268 CNS
SF-295 CNS = test system: SF-295 CNS
SF-539 CNS = test system: SF-539 CNS
SK-MEL-2 melanoma = test system: SK-MEL-2 melanoma
SK-MEL-28 melanoma = test system: SK-MEL-28 melanoma
SK-MEL-5 melanoma = test system: SK-MEL-5 melanoma
SK-OV-3 ovarian = test system: SK-OV-3 ovarian
SN12C renal = test system: SN12C renal
SNB-19 CNS = test system: SNB-19 CNS
SNB-75 CNS = test system: SNB-75 CNS
SR leukemia = test system: SR leukemia
SW-620 colon = test system: SW-620 colon
T-47D breast = test system: T-47D breast
TK-10 renal = test system: TK-10 renal
U251 CNS = test system: U251 CNS
UACC-257 melanoma = test system: UACC-257 melanoma
UACC-62 melanoma = test system: UACC-62 melanoma
UO-31 renal = test system: UO-31 renal

N#Cc1cnc2ccc(-c3cnc(N)nc3)cc2c1N1CCc2cc(F)c(Cl)cc21
GI50 (NCI-H226 lung): 0.555 µM
TGI (NCI-H226 lung): 11.3 µM
GI50 (NCI-H23 lung): 1.01 µM
TGI (NCI-H23 lung): 9.84 µM
GI50 (NCI-H460 lung): 0.425 µM
TGI (NCI-H460 lung): 11 µM
GI50 (NCI-H522 lung): 1.27 µM
TGI (NCI-H522 lung): 8.08 µM
GI50 (NCI/ADR-RES ovarian): 0.827 µM
TGI (NCI/ADR-RES ovarian): 25.9 µM
GI50 (OVCAR-4 ovarian): 0.314 µM
TGI (OVCAR-4 ovarian): 7.24 µM
GI50 (OVCAR-5 ovarian): 0.437 µM
TGI (OVCAR-5 ovarian): 11.3 µM
GI50 (OVCAR-8 ovarian): 0.453 µM
TGI (OVCAR-8 ovarian): 13.9 µM
GI50 (PC-3 prostate): 0.445 µM
TGI (PC-3 prostate): 12.3 µM
GI50 (RPMI-8226 leukemia): 0.325 µM
TGI (RPMI-8226 leukemia): 3.19 µM
GI50 (RXF 393 renal): 0.221 µM
TGI (RXF 393 renal): 1.25 µM
GI50 (SF-268 CNS): 0.437 µM
TGI (SF-268 CNS): 5.28 µM
GI50 (SF-295 CNS): 0.311 µM
TGI (SF-295 CNS): 4.49 µM
GI50 (SF-539 CNS): 0.505 µM
TGI (SF-539 CNS): 3.36 µM
GI50 (SK-MEL-2 melanoma): 0.531 µM
TGI (SK-MEL-2 melanoma): 2.02 µM
GI50 (SK-MEL-28 melanoma): 0.703 µM
TGI (SK-MEL-28 melanoma): 6.73 µM
GI50 (SK-MEL-5 melanoma): 1.22 µM
TGI (SK-MEL-5 melanoma): 2.52 µM
GI50 (SK-OV-3 ovarian): 0.391 µM
TGI (SK-OV-3 ovarian): 3.69 µM
GI50 (SN12C renal): 0.395 µM
TGI (SN12C renal): 14.7 µM
GI50 (SNB-19 CNS): 0.964 µM
TGI (SNB-19 CNS): 17.2 µM
GI50 (SNB-75 CNS): 0.144 µM
TGI (SNB-75 CNS): 0.834 µM
GI50 (SR leukemia): 0.329 µM
TGI (SR leukemia): > 19.9 µM
GI50 (SW-620 colon): 0.977 µM
TGI (SW-620 colon): 10.8 µM
GI50 (T-47D breast): 0.233 µM
GI50 (TK-10 renal): 0.26 µM
TGI (TK-10 renal): 2 µM
GI50 (U251 CNS): 0.714 µM
TGI (U251 CNS): 9.58 µM
GI50 (UACC-257 melanoma): 1.3 µM
TGI (UACC-257 melanoma): 6.87 µM
GI50 (UACC-62 melanoma): 0.363 µM
TGI (UACC-62 melanoma): 2.6 µM
GI50 (UO-31 renal): 0.142 µM
TGI (UO-31 renal): 4.64 µM
